Patent US10196606B2, “Method of producing multipotent stem cells” (FLINDERS UNIVERSITY OF SOUTH AUSTRALIA, priority 2011, dated 2019)

Experiments:
[1] = tested on: human umbilical cord fibroblast (HUCF) cells; assay: Induction of ALP positive colonies from HUCF, single induction cycle; format: cell-based; details: one induction cycle, 7 days in NSC media
Description: At passage 17, HUCF cells were labelled with an anti-p75NTR antibody and underwent cell sorting for p75-NTR expression as described below, p75NTR-negative cells were used for all experiments of the induction by small molecules described below. Two hours before induction, p75-NTR^− HUCF were seeded at 1.4×10^5 per 35 mm tissue culture dishes coated with poly-D-lysine. On Day 1, the cells were induced in human induced pluripotent stem cell culture medium (HIPS) (DMEM/F12 supplemented with 25% KSR (Invitrogen), 1% non-essential amino acids (Invitrogen), 1% L-glutamine (Invitrogen), 50 units ml-1 penicillin, 50 μg ml-1 streptomycin, 10 ng ml-1 bFGF, and 0.1 mM β-mercaptoethanol (Invitrogen)) containing various combinations of small molecules as described below. The small molecules were used at the following concentrations: 0.5 μM PD0325901, 0.5 μM PD184352 (Millipore Merck), 72 nM U0216 (Millipore Merck), 0.4 μM RG108. […] 5-aza-2′-deoxycytidine (Millipore Merck) and 1 μM BIX01294. On day 2, the media was replaced with stem cell media (SCM) in the absence of small molecules as described in Example 1, except where indicated, the media was HIPS media in the absence of small molecules. On day 4, the cells were dissociated using 1 ml (1×) Tryple-E enzyme (Invitrogen) and seeded on 35 mm Petri dish with Neural Stem Cell (NSC) media (Neurobasal Medium (Invitrogen) supplemented with 10 ng/m bFGF and EGF with 50 units/ml penicillin, 50 μg/ml streptomycin). Colonies were maintained in NSC media for 7 days to induce neural stem cells unless stated otherwise.
Cells were induced with a combination of small molecules as described above and stained with ALP as described in Example 1, and examined using phase contrast microscopy.

[2] = tested on: mouse adult tail-tip fibroblasts (TTF); assay: Induction of SMINS cells / ALP-positive neurospheres from TTF; format: cell-based
Description: (§1) Mouse embryonic fibroblasts (MEF) and mouse adult tail-tip fibroblasts (TTF) were isolated from C57/BL6 mice as described previously^2. Both cell types (ie MEF and TTF) were cultured in MEF medium (Dulbecco's Modified Eagle Medium (DMEM; Invitrogen Corporation, Carlsbad, Calif., United States of America) containing 10% Fetal Bovine Serum (FBS; Thermo Fisher Scientific, Waltham, Mass., United. States of America), 50 units/ml penicillin and 50 μg/ml streptomycin (Invitrogen)). Native NS cells were cultured from mouse brain at E12-E14 as positive controls in neural stem (NS) cell media.
(§2) 35 mm tissue culture dishes were coated with feeder cells (fibroblasts cultured from mouse embryo and seeded at 1.4×10^5 cells per 35 mm tissue culture dish) before induction. The MEF (passage 3) or TTF were seeded at 1.4×10^5 per 35 mm feeder cell-coated dish. The cells were induced in 6 cycles. […] The cells were then cultured in SCM in the absence of the small molecules for the next two days. Then, the cycle was repeated 5 times. Next, the cells were passaged and suspended in a drop of […] containing at least 50 cells for two days. Finally, the cells were cultured in the neural stem (NS) cell medium (DMEM/F12 (Invitrogen) supplemented with B-27 (1:50; Gibco Inc, Billings, Mont., United States of America), 50 units ml^−1 penicillin, 50 μg ml^−1 streptomycin, 8 mM HEPES buffer, 20 ng ml^−1 epidermal growth factor (EGF), 10 ng ml^−1 basic fibroblast growth factor (bFGF) for two weeks.
(§3) ES culture medium (also referred to as SCM herein) was added to NS and SMINS cells overnight. Alkaline phosphatase staining was carried out according to the manufacturer's protocol (Hoffman-La Roche, Basel, Switzerland). For the immunofluorescence staining, cells were washed with phosphate buffered saline (PBS) and then fixed with 4% paraformaldehyde for 10 min. After washing twice with PBS, the cells were permeabilised with 0.1% Triton X-100 for 20 min. Cells were then washed twice and blocked in blocking buffer (a solution of PBS containing 1% FBS and 4% bovine serum albumin (BSA)) for 1 hour. […]

[3] = tested on: mouse embryonic fibroblasts (MEF); assay: Induction of SMINS cells / ALP-positive neurospheres from MEF, 6 induction cycles; format: cell-based; details: withdrawal of individual small molecules from the combination
Description: as §1, §2, §3

cell reprogramming = details: cited from earlier work
ALK1 = ALK1 (Homo sapiens, UniProt P37023); details: cited from earlier work
Sequence of ALK1 (P37023 22-503, species assumed): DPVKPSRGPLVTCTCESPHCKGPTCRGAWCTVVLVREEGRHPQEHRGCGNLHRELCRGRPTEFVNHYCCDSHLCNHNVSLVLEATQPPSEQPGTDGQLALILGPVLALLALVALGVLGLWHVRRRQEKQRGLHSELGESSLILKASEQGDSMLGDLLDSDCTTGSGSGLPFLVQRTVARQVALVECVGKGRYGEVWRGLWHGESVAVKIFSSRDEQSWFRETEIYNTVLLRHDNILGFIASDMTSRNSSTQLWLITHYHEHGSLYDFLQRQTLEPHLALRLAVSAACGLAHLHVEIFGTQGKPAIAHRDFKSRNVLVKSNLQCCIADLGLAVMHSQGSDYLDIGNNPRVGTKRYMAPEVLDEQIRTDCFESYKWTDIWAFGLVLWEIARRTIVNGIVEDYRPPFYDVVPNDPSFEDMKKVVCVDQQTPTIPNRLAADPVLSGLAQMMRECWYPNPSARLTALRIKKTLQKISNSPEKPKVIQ

ALK2 = biological target: T1, ALK2 (Homo sapiens, UniProt Q04771); details: cited from earlier work
T1 sequence (Q04771 21-509): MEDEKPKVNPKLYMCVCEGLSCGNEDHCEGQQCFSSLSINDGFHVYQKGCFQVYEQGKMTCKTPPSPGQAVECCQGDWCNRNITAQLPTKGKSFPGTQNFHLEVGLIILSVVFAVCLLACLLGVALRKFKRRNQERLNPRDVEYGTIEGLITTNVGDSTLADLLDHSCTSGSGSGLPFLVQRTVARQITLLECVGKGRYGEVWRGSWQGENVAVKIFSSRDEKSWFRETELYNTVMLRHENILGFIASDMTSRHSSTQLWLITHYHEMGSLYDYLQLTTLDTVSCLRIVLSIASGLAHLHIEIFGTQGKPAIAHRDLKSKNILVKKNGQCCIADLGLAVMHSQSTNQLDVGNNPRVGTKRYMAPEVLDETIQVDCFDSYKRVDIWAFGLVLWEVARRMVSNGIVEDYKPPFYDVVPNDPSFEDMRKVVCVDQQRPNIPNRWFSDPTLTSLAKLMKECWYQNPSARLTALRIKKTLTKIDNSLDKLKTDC

ALK6 = ALK6 (Homo sapiens, UniProt O00238); details: cited from earlier work
Sequence of ALK6 (O00238 14-502): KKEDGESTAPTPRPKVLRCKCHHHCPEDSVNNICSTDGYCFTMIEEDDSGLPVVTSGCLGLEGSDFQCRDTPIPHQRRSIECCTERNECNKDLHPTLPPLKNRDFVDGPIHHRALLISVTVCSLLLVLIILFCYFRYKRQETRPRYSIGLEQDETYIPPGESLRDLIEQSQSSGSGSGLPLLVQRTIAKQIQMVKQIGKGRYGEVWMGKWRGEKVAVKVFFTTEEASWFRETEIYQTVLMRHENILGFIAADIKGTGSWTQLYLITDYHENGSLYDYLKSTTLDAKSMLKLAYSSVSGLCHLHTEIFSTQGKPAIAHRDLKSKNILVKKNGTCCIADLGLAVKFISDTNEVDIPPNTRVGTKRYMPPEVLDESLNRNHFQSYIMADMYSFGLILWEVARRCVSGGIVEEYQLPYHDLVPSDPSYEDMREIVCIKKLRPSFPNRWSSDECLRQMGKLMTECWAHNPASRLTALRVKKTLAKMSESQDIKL

ALK3 = ALK3 (Homo sapiens, UniProt P36894); details: cited from earlier work
Sequence of ALK3 (P36894 24-532): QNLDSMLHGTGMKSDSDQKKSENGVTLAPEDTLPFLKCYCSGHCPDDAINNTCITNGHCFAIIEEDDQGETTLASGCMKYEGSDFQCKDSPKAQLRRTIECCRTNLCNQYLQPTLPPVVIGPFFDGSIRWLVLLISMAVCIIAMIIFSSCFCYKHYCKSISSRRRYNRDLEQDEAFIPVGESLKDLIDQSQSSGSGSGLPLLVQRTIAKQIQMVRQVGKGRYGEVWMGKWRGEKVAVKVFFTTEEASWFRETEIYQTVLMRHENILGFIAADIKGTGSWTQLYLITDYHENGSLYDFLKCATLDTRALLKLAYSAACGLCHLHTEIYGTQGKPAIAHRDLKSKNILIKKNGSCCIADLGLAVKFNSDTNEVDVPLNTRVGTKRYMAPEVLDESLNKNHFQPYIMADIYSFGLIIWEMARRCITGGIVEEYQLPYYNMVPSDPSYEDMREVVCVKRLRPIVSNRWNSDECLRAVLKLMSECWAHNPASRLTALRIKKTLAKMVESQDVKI

ALK4 = biological target: T2, ALK4 (Homo sapiens, UniProt P36896); details: cited from earlier work
T2 sequence (P36896 24-505): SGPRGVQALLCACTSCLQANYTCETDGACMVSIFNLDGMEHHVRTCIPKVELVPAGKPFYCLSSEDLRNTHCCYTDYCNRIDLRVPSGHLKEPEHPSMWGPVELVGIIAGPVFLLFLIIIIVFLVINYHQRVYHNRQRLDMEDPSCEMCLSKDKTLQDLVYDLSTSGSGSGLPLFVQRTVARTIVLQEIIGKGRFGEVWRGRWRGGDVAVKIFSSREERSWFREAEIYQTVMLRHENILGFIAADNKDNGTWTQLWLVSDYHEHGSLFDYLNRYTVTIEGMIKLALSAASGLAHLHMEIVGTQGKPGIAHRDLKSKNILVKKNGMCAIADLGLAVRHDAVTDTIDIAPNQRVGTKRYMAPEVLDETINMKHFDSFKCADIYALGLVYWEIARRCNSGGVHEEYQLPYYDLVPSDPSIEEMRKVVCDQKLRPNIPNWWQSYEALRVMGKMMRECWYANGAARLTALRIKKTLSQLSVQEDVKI

[4] = tested on: human umbilical cord fibroblast (HUCF) cells; assay: RT-PCR of cells induced from HUCF; format: cell-based; details: immediately after induction, prior to culture in NSC media
Description: mRNA was extracted from cells induced using BIX01294 and RG108 in combination or BIX01294 alone. A cell lysate from SKSY5Y cells (a neuroblastoma cell line) was used as a positive control, and HUCF cells at passage 17 following p75-NTR negative selection was used as a negative control. RT-PCR was performed as described in Example 1 for expression of typical neural stem cell genes GFAP, Sox2, Olig2, Nestin, and pluripotent stem cell genes Oct4 and Nanog, and loading control gene GAPDH using the primers described in Example 1.

[5] = tested on: human umbilical cord fibroblast (HUCF) cells; assay: Immunocytochemistry of cells induced from HUCF; format: cell-based
Description: Cells were induced with small molecules (BIX0124 alone or BIX0125 and RG108 in combination) as described above, with cells cultured in HIPS media at Days 2 and 3. Cells were cultured in NSC media for 0, 2 or 6 days as detailed below. Prior to immunofluorescence staining, cells were dissociated with Tryple-E enzyme as described above, and then incubated overnight at low density on poly-D-lysine coated coverslips in HIPS media prior to immunofluorescence staining.
Cells were then washed with PBS and then fixed with 4% paraformaldehyde for 10 min. After washing twice with PBS, cells were permeabilised with 0.1% Triton X-100 for 20 min. Cells were then washed twice and blocked in blocking buffer (a solution of PBS containing 1% FBS and 4% BSA) for 1 hour. Primary antibodies were diluted in blocking buffer in the following dilutions: anti-Sox2 (Millipore, 1:200, mouse), anti-SSEA-1 (Santa Cruz Biotechnology, 1:200, mouse), anti-glial fibrillary acidic protein (GFAP; Dako, 1:400, rabbit), anti-Map2 (Osenses, 1:1000, rabbit), anti-Olig2 (Osenses, 1:1000, rabbit), anti-Alpha-tubulin (Sigma, 1:1000, mouse), anti-neural/glial 2 (Abeam, 1:200), anti-nestin (DHSB, 1:1000), anti-Tuj1 Sigma, 1:300 and applied to the cells for 1 hour at room temperature or overnight at 4° C. Cells were washed three times with PBS and then secondary fluorescent antibodies (1:1000, Cy3 or Alexa-488) and counterstain with 10 μg/ml DAPI were applied for 1 hour at room temperature.
In one experiment, HUCF cells were induced as follows: At passage 17, HUCF cells were negatively selected for p75-NTR and then induced using BIX01294 alone in HIPS media for one day and HIPS media (no small molecules) for two days followed by culture in NSC media for 6 days. Meanwhile control HUCF cells at passage 17 were negatively selected for p75-NTR cells, and then passaged another 5 times. Cells were then stained with mouse anti-p75-NTR-FITC (Biosensis, 1:6, mouse) and counterstained with DAPI as described above.

SMILES: O=C(NOCC(O)CO)c1ccc(F)c(F)c1Nc1ccc(I)cc1F (centres unmarked) [PD325901, N-(2,3-dihydroxy-propoxy)-3,4-difluoro-2-(2-fluoro-4-iodo-phenylamino)-benzamide]
- induction of ALP positive colonies from HUCF [1]: induced ALP positive colonies
- ALP-positive neurosphere produced from TTF [2]: Yes
- essential for generation of SMINS-MEF cells [3]: required for the induction

SMILES: CCCC(CCC)C(=O)O [valproic acid]
- improvement of the efficiency of cell reprogramming by some induction processes (cell reprogramming): at least 100 fold

SMILES: O=C(O)[C@H](Cc1c[nH]c2ccccc12)N1C(=O)c2ccccc2C1=O [RG108, 1H-Indole-3-propanoic acid, α-(1,3-dihydro-1,3-dioxo-2H-isoindol-2-yl)-, (αS)—]
- ALP-positive neurosphere produced from TTF [2]: No
- essential for generation of SMINS-MEF cells [3]: required for the induction

SMILES: Cc1cccc(-c2nn(C(=S)Nc3ccccc3)cc2-c2ccnc3ccccc23)n1 [A83-01, 3-(6-Methyl-2-pyridinyl)-N-phenyl-4-(4-quinolinyl)-1H-pyrazole-1-carbothioamide]
- inhibition of ALK1 (ALK1): only weakly inhibits
- inhibition of ALK2 (ALK2): only weakly inhibits
- inhibition of ALK6 (ALK6): only weakly inhibits
- inhibition of ALK3 (ALK3): only weakly inhibits
- IC50 (ALK4): 12 nM

SMILES: O=C(NOCC1CC1)c1ccc(F)c(F)c1Nc1ccc(I)cc1Cl [PD184352, 2-(2-chloro-4-iodo-phenylamino)-N-cyclopropylmethoxy-3,4-difluoro-benzamide]
- induction of ALP positive colonies from HUCF [1]: induced ALP positive colonies

SMILES: N#CC(=C(/N)Sc1ccccc1N)/C(C#N)=C(/N)Sc1ccccc1N [U0216]
- induction of ALP positive colonies from HUCF [1]: induced ALP positive colonies

SMILES: COc1cc2nc(N3CCCN(C)CC3)nc(NC3CCN(Cc4ccccc4)CC3)c2cc1OC.Cl.Cl.Cl.O [BIX01294, 2-(hexahydro-4-methyl-1H-1,4-diazepin-1-yl)-6,7-dimethoxy-N-[1-(phenylmethyl)-4-piperidinyl]-4-quinazolinamine trihydrochloride hydrate]
- Sox2 expression (RT-PCR) [4]: expressed Sox2 immediately after induction
- expression of neural stem cell marker nestin ([5]; 6 days in NSC media): additionally express the neural stem cell marker nestin
- p75-NTR staining versus control p75-NTR negative HUCF ([5]; 6 days in NSC media): marked upregulation
- expression of NG2, Olig2, GFAP and Tuj1 ([5]; after culture in NSC media): some BIX01294 induced cells express
- expression of Sox2 and SSEA-1 (immunofluorescence) ([5]; culture in NSC media for 0 or 6 days): clearly expressed Sox2 and SSEA-1
- ALP-positive neurosphere produced from TTF [2]: No
- essential for generation of SMINS-MEF cells [3]: required for the induction
